{"source": "patent US11439617B2", "about": "“Polymeric compositions of monomethyl fumarate and their use in treating relapsing remitting multiple sclerosis and psoriasis” (priority 2017, dated 2022)", "origin": "cited, not measured here", "details": "in vivo", "note": "Counter-ions that a name gives are not always drawn.", "data": [{"smiles": "COC(=O)/C=C/C(=O)O", "note": "[MMF, monomethyl fumarate]", "values": [{"measurement": "Tmax", "value": "about 2.5 hours"}, {"measurement": "half-life in circulation", "value": 36, "unit": "h"}]}]}
